Experimental findings from patent US11814376B2, “Hepatitis b core protein modulators” (Assembly Biosciences, Inc., priority 2015, dated 2023) are described below.

Series [1] relates to HBV viral load in AD38 cells. In words: Viral load production in AD38 cells, quantitative PCR of the core sequence in supernatant. It is filed as cell-based. The conditions noted are these: Hepatitis B virus, 144 h, 10 μM compound, 6 days at 37° C., supernatant qPCR, relative to DMSO control; read-out: AD38 Viral Load (%) (VL with cmpd/VL in DMSO control) at 10 μM. A general note: In qPCR the cycle at which signal appears reflects the starting amount.

Series [2] deals with AD38 cells. In words: Viability of AD38 cells (Promega CellTiter-Glo). The conditions noted are these: 10 μM compound, 6 days, CellTiter-Glo luminescence normalized to DMSO control (100%). It is filed as cell-based. An outline of the steps:
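AD38 cells were seeded at 50,000/well on collagen-coated plates and treated with compound added as a 10× solution in 10% DMSO for 6 days at 37° C. Viability was measured by CellTiter-Glo luminescence in tetracycline-free medium with 2% FBS and 1% DMSO, and expressed as percent of DMSO control.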
On the technique in general: In ATP-based viability assays light output follows the ATP content of the culture.

Take `O=C(NCc1cnc(-c2ccc(-n3cccn3)cc2)s1)c1ccc2c(c1)NC(=O)c1ccccc1S2(=O)=O` [compound 1952, N-((2-(4-(1H-pyrazol-1-yl)phenyl)thiazol-5-yl)methyl)-11-oxo-10, 11-dihydrodibenzo [b, f] [1, 4] thiazepine-8-carboxamide 5,5-dioxide]: the activity at 10 µM in series [1] was 0.8%. Further, in series [2], the “AD38 Viability Normalized Result (cmpd/DMSO %) at 10 μM” value is recorded as 106%.

For `O=C(NCc1cnc(-c2ccc(-c3cc[nH]n3)cc2)s1)c1ccc2c(c1)NC(=O)c1ccccc1S2(=O)=O` [compound 1953], in series [1], the activity at 10 µM is 0.4%. The “AD38 Viability Normalized Result (cmpd/DMSO %) at 10 μM” value in series [2] was determined as 118%.

In the case of `O=C(NCc1cnc(-c2ccc(-c3nccs3)cc2)s1)c1ccc2c(c1)NC(=O)c1ccccc1S2(=O)=O` [compound 1954], the activity at 10 µM in series [1] was found to be 0.5%. Besides, the “AD38 Viability Normalized Result (cmpd/DMSO %) at 10 μM” value in series [2] was 106%.

Regarding `O=C(NCc1cnc(-c2cncs2)s1)c1ccc2c(c1)NC(=O)c1ccccc1S2(=O)=O` [compound 1956], the activity at 10 µM in series [1] stood at 2.3%. For the same compound, the “AD38 Viability Normalized Result (cmpd/DMSO %) at 10 μM” value in series [2] was 88%.

Turning to `O=C(NCc1cnc(-c2cnco2)s1)c1ccc2c(c1)NC(=O)c1ccccc1S2(=O)=O` [compound 1957], the activity at 10 µM in series [1] is 1.5%. The “AD38 Viability Normalized Result (cmpd/DMSO %) at 10 μM” value in series [2] is 94%.

Consider `O=C(NCc1cnc(-c2ncco2)s1)c1ccc2c(c1)NC(=O)c1ccccc1S2(=O)=O` [compound 1958], for which, in series [1], the activity at 10 µM turned out to be 1.5%. Also, in series [2], the “AD38 Viability Normalized Result (cmpd/DMSO %) at 10 μM” value is on record as 91%.

As to `O=C(NCc1cnc(-c2cc[nH]n2)s1)c1ccc2c(c1)NC(=O)c1ccccc1S2(=O)=O` [compound 1959], the activity at 10 µM in series [1] was determined as 5%. For the same compound, the “AD38 Viability Normalized Result (cmpd/DMSO %) at 10 μM” value in series [2] is on record as 92%.

Turning to `O=C(NCc1cnc(-n2cccn2)s1)c1ccc2c(c1)NC(=O)c1ccccc1S2(=O)=O` [compound 1960], in series [1], the activity at 10 µM was determined as 0.8%. Besides, the “AD38 Viability Normalized Result (cmpd/DMSO %) at 10 μM” value in series [2] amounted to 106%.

Turning to `NC(=O)c1ccc(-c2ncc(CNC(=O)c3ccc4c(c3)NC(=O)c3ccccc3S4(=O)=O)s2)c(F)c1` [compound 1970, N-((2-(4-carbamoyl-2-fluorophenyl)thiazol-5-yl)methyl)-11-oxo-10, 11-dihydrodibenzo [b, f] [1, 4] thiazepine-8-carboxamide 5,5-dioxide], the activity at 10 µM in series [1] amounted to 1.5%. Also, the “AD38 Viability Normalized Result (cmpd/DMSO %) at 10 μM” value in series [2] was found to be 121%.

Regarding `Cc1c(C(=O)NCc2cnc(-c3ccc(C#N)cc3F)s2)ccc2c1NC(=O)c1ccccc1S2(=O)=O` [compound 1971], the activity at 10 µM in series [1] was determined as 7%. Moreover, the “AD38 Viability Normalized Result (cmpd/DMSO %) at 10 μM” value in series [2] turned out to be 87%.

Consider `O=C(NCc1cnc(N2C[C@H](O)CC[C@@H](O)C2)s1)c1ccc2c(c1)NC(=O)c1ccccc1S2(=O)=O` [compound 1972], for which the activity at 10 µM in series [1] was found to be 23.5%. In series [2], the “AD38 Viability Normalized Result (cmpd/DMSO %) at 10 μM” value is on record as 100%.

As for `O=C1CCN(c2ncc(CNC(=O)c3ccc4c(c3)NC(=O)c3ccccc3S4(=O)=O)s2)CCN1` [compound 1973], the activity at 10 µM in series [1] was 33.7%. For the same compound, the “AD38 Viability Normalized Result (cmpd/DMSO %) at 10 μM” value in series [2] is 100%.

Consider `CN1c2ccc(C(=O)NCc3cnc(-c4ccc(C#N)cc4)s3)cc2NC(=O)c2ccccc21` [compound 1974], for which the activity at 10 µM in series [1] was 15.3%. Further, the “AD38 Viability Normalized Result (cmpd/DMSO %) at 10 μM” value in series [2] turned out to be 103%.

Take `CCN1c2ccc(C(=O)NCc3cnc(-c4ccc(C#N)cc4)s3)cc2NC(=O)c2ccccc21` [compound 1975]: the activity at 10 µM in series [1] came out at 1%. The “AD38 Viability Normalized Result (cmpd/DMSO %) at 10 μM” value in series [2] is 63%.

Take `CC1(C)CCN(c2ncc(CNC(=O)c3ccc4c(c3)NC(=O)c3ccccc3S4(=O)=O)s2)C1` [compound 1981]: in series [1], the activity at 10 µM was determined as 0.2%. In series [2], the “AD38 Viability Normalized Result (cmpd/DMSO %) at 10 μM” value is listed as 105%.

For `Cl.NCCCOc1ccc(-c2ncc(CNC(=O)c3ccc4c(c3)NC(=O)c3ccccc3S4(=O)=O)s2)cc1` [compound 1988, N-((2-(4-(3-aminopropoxy)phenyl)thiazol-5-yl)methyl)-11-oxo-10, 11-dihydrodibenzo [b, f] [1, 4] thiazepine-8-carboxamide 5,5-dioxide hydrochloride], in series [1], the activity at 10 µM is 1.3%. For the same compound, the “AD38 Viability Normalized Result (cmpd/DMSO %) at 10 μM” value in series [2] is 103%.

Turning to `CNCCCOc1ccc(-c2ncc(CNC(=O)c3ccc4c(c3)NC(=O)c3ccccc3S4(=O)=O)s2)cc1` [compound 1989, N-((2-(4-(3-(methylamino)propoxy)phenyl)thiazol-5-yl)methyl)-11-oxo-10, 11-dihydrodibenzo [b, f] [1, 4] thiazepine-8-carboxamide 5,5-dioxide], the activity at 10 µM in series [1] amounted to 2.5%. The “AD38 Viability Normalized Result (cmpd/DMSO %) at 10 μM” value in series [2] is reported as 90%.

Regarding `CC(C)(C)NCCCOc1ccc(-c2ncc(CNC(=O)c3ccc4c(c3)NC(=O)c3ccccc3S4(=O)=O)s2)cc1` [compound 1990, N-((2-(4-(3-(tert-butylamino)propoxy)phenyl)thiazol-5-yl)methyl)-11-oxo-10, 11-dihydrodibenzo [b, f] [1, 4] thiazepine-8-carboxamide 5,5-dioxide], in series [1], the activity at 10 µM came to 4.1%. Besides, the “AD38 Viability Normalized Result (cmpd/DMSO %) at 10 μM” value in series [2] is listed as 98%.

`CC(=O)NCCCOc1ccc(-c2ncc(CNC(=O)c3ccc4c(c3)NC(=O)c3ccccc3S4(=O)=O)s2)cc1` [compound 1991]: the activity at 10 µM in series [1] was 2%. Besides, in series [2], the “AD38 Viability Normalized Result (cmpd/DMSO %) at 10 μM” value was 98%.

With `O=C(NCc1cnc(-c2ccc(OCCCN3CCCCC3)cc2)s1)c1ccc2c(c1)NC(=O)c1ccccc1S2(=O)=O` [compound 1992], the activity at 10 µM in series [1] turned out to be 5%. Besides, the “AD38 Viability Normalized Result (cmpd/DMSO %) at 10 μM” value in series [2] came to 89%.

Regarding `O=C(NCc1cnc(-c2ccc(OCCCN3CCOCC3)cc2)s1)c1ccc2c(c1)NC(=O)c1ccccc1S2(=O)=O` [compound 1993], the activity at 10 µM in series [1] stood at 0.5%. Moreover, in series [2], the “AD38 Viability Normalized Result (cmpd/DMSO %) at 10 μM” value is reported as 96%.

`CN(CCCOc1ccc(-c2ncc(CNC(=O)c3ccc4c(c3)NC(=O)c3ccccc3S4(=O)=O)s2)cc1)CC(F)(F)F` [compound 1994]: the activity at 10 µM in series [1] came to 0.9%. Moreover, the “AD38 Viability Normalized Result (cmpd/DMSO %) at 10 μM” value in series [2] was determined as 92%.

Consider `O=C(NCc1cnc(-c2ccc(OCC3CNC3)cc2)s1)c1ccc2c(c1)NC(=O)c1ccccc1S2(=O)=O.O=C(O)C(F)(F)F` [compound 1995, N-((2-(4-(azetidin-3-ylmethoxy)phenyl)thiazol-5-yl)methyl)-11-oxo-10, 11-dihydrodibenzo [b, f] [1, 4] thiazepine-8-carboxamide 5,5-dioxide TFA salt], for which the activity at 10 µM in series [1] was determined as 16.3%. Moreover, the “AD38 Viability Normalized Result (cmpd/DMSO %) at 10 μM” value in series [2] amounted to 103%.

Take `Cl.O=C(NCc1cnc(-c2ccc(OCCC3CCCN3)cc2)s1)c1ccc2c(c1)NC(=O)c1ccccc1S2(=O)=O` (centres unmarked) [compound 1996, 11-oxo-N-((2-(4-(2-(pyrrolidin-2-yl)ethoxy)phenyl)thiazol-5-yl)methyl)-10, 11-dihydrodibenzo [b, f] [1, 4] thiazepine-8-carboxamide 5,5-dioxide hydrochloride]: the activity at 10 µM in series [1] was found to be 17.4%. For the same compound, the “AD38 Viability Normalized Result (cmpd/DMSO %) at 10 μM” value in series [2] came to 100%.

Turning to `Cl.O=C(NCc1cnc(-c2ccc(OCC3CCCNC3)cc2)s1)c1ccc2c(c1)NC(=O)c1ccccc1S2(=O)=O` (centres unmarked) [compound 1997, 11-oxo-N-((2-(4-(piperidin-3-ylmethoxy)phenyl)thiazol-5-yl)methyl)-10, 11-dihydrodibenzo [b, f] [1, 4] thiazepine-8-carboxamide 5,5-dioxide hydrochloride], in series [1], the activity at 10 µM stood at 9.7%. Also, the “AD38 Viability Normalized Result (cmpd/DMSO %) at 10 μM” value in series [2] is reported as 104%.

With `O=C(NCc1cnc(-c2ccc(OCCCN(CCO)CCO)cc2)s1)c1ccc2c(c1)NC(=O)c1ccccc1S2(=O)=O` [compound 1998], the activity at 10 µM in series [1] came to 3.7%. Moreover, the “AD38 Viability Normalized Result (cmpd/DMSO %) at 10 μM” value in series [2] is 99%.

As to `CN(C)CCCCOc1ccc(-c2ncc(CNC(=O)c3ccc4c(c3)NC(=O)c3ccccc3S4(=O)=O)s2)cc1` [compound 11001], the activity at 10 µM in series [1] is 1.7%. For the same compound, the “AD38 Viability Normalized Result (cmpd/DMSO %) at 10 μM” value in series [2] amounted to 77%.

On to `NCCC#Cc1ccc(-c2ncc(CNC(=O)c3ccc4c(c3)NC(=O)c3ccccc3S4(=O)=O)s2)cc1` [compound 11002, N-((2-(4-(4-aminobut-1-yn-1-yl)phenyl)thiazol-5-yl)methyl)-11-oxo-10, 11-dihydrodibenzo [b, f] [1, 4] thiazepine-8-carboxamide 5,5-dioxide], for which the activity at 10 µM in series [1] stood at 0.9%. Besides, the “AD38 Viability Normalized Result (cmpd/DMSO %) at 10 μM” value in series [2] is recorded as 90%.

`CN(C)CCC#Cc1ccc(-c2ncc(CNC(=O)c3ccc4c(c3)NC(=O)c3ccccc3S4(=O)=O)s2)cc1` [compound 11003, N-((2-(4-(4-(dimethylamino)but-1-yn-1-yl)phenyl)thiazol-5-yl)methyl)-11-oxo-10, 11-dihydrodibenzo [b, f] [1, 4] thiazepine-8-carboxamide 5,5-dioxide]: in series [1], the activity at 10 µM was found to be 0.3%. Moreover, the “AD38 Viability Normalized Result (cmpd/DMSO %) at 10 μM” value in series [2] stood at 97%.

Regarding `Cl.NCCCCc1ccc(-c2ncc(CNC(=O)c3ccc4c(c3)NC(=O)c3ccccc3S4(=O)=O)s2)cc1` [compound 11004, N-((2-(4-(4-aminobutyl)phenyl)thiazol-5-yl)methyl)-11-oxo-10, 11-dihydrodibenzo [b, f] [1, 4] thiazepine-8-carboxamide 5,5-dioxide hydrochloride salt], the activity at 10 µM in series [1] was determined as 5.5%. In series [2], the “AD38 Viability Normalized Result (cmpd/DMSO %) at 10 μM” value is 94%.

In the case of `CN(C)CCCCc1ccc(-c2ncc(CNC(=O)c3ccc4c(c3)NC(=O)c3ccccc3S4(=O)=O)s2)cc1` [compound 11005, N-((2-(4-(4-(dimethylamino)butyl)phenyl)thiazol-5-yl)methyl)-11-oxo-10, 11-dihydrodibenzo [b, f] [1, 4] thiazepine-8-carboxamide 5,5-dioxide], the activity at 10 µM in series [1] turned out to be 1.9%. For the same compound, in series [2], the “AD38 Viability Normalized Result (cmpd/DMSO %) at 10 μM” value turned out to be 102%.
